Results: patent US6632921B1, “Seryl-lysyl-based peptide and peptidomimetic inhibitors of N-myristoyl transferase as anti-infective agents” (G. D Searle & Co, priority 1995, dated 2003)
pEC50, pIC50: −log10 of the molar value. Where two headings read alike, the source gives them in different places.

Experiments:
[1] = system: C.para.; assay: Antifungal susceptibility testing, pH 5.4 assay, different strains of Candida; format: cell-based, C.parasilosis; settings: 24 hr
[2] = system: C.lusi.; assay: as above; format: cell-based, C.lusitaniae; settings: Clavispora lusitaniae, 24 hr
[3] = target: T1, human NMT (Homo sapiens, UniProt P30419); assay: NMT enzyme inhibition assay (radiochemical HPLC end-point), human NMT; format: biochemical
T1 construct: made in house; host or cells: E. coli
T1 sequence (P30419 1-416 isoform P30419-2): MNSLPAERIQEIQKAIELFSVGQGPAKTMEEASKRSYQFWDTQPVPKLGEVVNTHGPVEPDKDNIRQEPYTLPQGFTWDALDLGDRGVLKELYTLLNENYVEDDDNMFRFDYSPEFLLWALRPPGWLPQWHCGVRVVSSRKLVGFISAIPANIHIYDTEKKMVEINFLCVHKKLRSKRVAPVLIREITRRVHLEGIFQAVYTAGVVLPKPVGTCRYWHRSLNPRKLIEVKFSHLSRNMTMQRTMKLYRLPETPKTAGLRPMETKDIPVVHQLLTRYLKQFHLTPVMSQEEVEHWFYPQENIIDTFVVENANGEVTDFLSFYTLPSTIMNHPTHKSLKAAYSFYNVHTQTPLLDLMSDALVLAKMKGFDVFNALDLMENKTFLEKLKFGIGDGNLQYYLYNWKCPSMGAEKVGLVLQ
Experimental: Recombinant Candida albicans and human NMTs were expressed and purified from E. coli using previously described protocols. [D. A. Towler et al, Proc. Natl. Acad. Sci. USA, 84, 2707-2712 (1987); R. C. Weigand et al, J. Biol. Chem., 267, 8591-8598 (1992); R. J. Duronio et al, Proc. Natl. Acad. Sci. USA, 89, 4129-4133 (1992)] The ability of compounds to inhibit Candida NMT enzymatic activity was assessed using a radiochemical HPLC end-point assay as described previously for Saccharomyces cerevisiae and human NMTs. [D. Towler et al, Proc. Natl. Acad. Sci. USA, 83, 2812-2816 (1986); W. J. Rocque et al, J. Biol. Chem., 268, 9964-9971 (1991)] The donor substrate [^3H]myristoyl-coenzyme A was enzymatically synthesized from [^3H]myristic acid (50 Ci/mmol, Amersham, Arlington Heights, Ill.) and coenzyme A (Fluka Chemical Corp., Ronkonkoma, N.Y.), and purified as described previously. [W. J. Rocque et al, J. Biol. Chem., 268, 9964-9971 (1991)] The peptide acceptor substrate GNAASARR-NH2 was prepared by solid-phase peptide synthesis using the t-Boc amino acid methodology, followed by HF treatment and reverse-phase HPLC purification. Inhibitor stock solutions were prepared at 22 mM in DMSO; the final concentration of DMSO in each assay was 0.5% (v/v). […] The reaction was quenched after 10 minutes at 24° C. by the addition of ice-cold MeOH, and the reaction products were separated and measured using C4 reverse-phase HPLC (Vydac 214TP10415; Separations Group, Hesperia, Calif.) and in-line scintillation counting using a Radiomatic A250 (Packard Instruments, Downers Grove, Ill.) and Ecolite(+) (ICN Biomedical, Costa Mesa, Calif.) as the scintillant. Selectivity was determined by calculating the ratio of the IC50 against human NMT to the IC50 against C. albicans NMT.

[4] = system: Candida albicans, strain B311; assay: Antifungal susceptibility testing, microdilution broth, pH 5.4/30° C./YNB; format: cell-based; settings: B311, 24 h
Experimental: Antifungal Screens were set up initially against Candida albicans, strain B311, and Cryotococcus neoformans, strain L210425. Both pathogens, (originally from the stock culture collection, Medical mycology research center, Washington university-Barnes hospital), were obtained from Dr.Kobayashi, Prof.of infectious diseases, Washington University, St.Louis, Mo.
All cultures are maintained at 30° C. on Sabouraud's dextrose agar slants and subcultured at monthly intervals to fresh medium. All inocula for susceptibility testing are prepared in yeast nitogen base(YNB, Difco) broth.
A loopful of growth from Sabouraud dextrose agar slant is inoculated into 4 ml of YNB broth media and incubated at 30° C. overnight (18-24 hrs) with constant agitation (Gyratory Shaker, New Brunswick Scientific). Prior to setting up susceptibility testing, the organisms are counted in a hemocytometer, and diluted as needed into assay media.
(§1) 1) (Assay at DH 5.4/30° C. Incubation/YNB Media).
(§2) Antifungal assays were carried out initially by a modification of the method published by Jones, et. al; (1), and communicated to Searle by Dr. Kobayashi, Washington University. [R. N. Jones et al, Manual of Clinical Microbiology, 4th ed., (1985)]
(§3) The antifungal susceptibility testing consists of a microdilution broth procedure performed in 96 well microtiter plates (Costar, cat#3799). Briefly, test compounds from a 20 mM stock solution in DMSO are diluted into sterile, deionized water (final DMSO concentration not exceeding 1%), to yield 2× the desired concentration (100 uM, 10 uM and 1 uM for an initial screen, or a selected concentration range in serial 2 fold dilutions for EC50 determination). One hundred microliters (100 ul) of each concentration is dispensed into triplicate wells of a 96 well microtiter plate. Appropriate dilutions of a suspension of C.albicans (1×10^6 cells/ml) in 2× YNB is distributed into each of the wells, including growth control wells containing no test compound as well as control wells with 0.5% DMSO. Amphotericin B at 0.05, 1 and 5 ug/ml is included in each assay plate as a positive control. The plates are incubated at 30° C. and cell growth is scored by reading the absorbance at 590 nm on an Elisa plate reader(Dynatech, MR.5000).

[5] = system: C.alb (516); assay: Antifungal susceptibility testing, pH 5.4 assay, different strains of Candida; format: cell-based; settings: Candida albicans, 24 hr
Experimental: as §1, §2, §3

[6] = system: C.glab.; assay: as above; format: cell-based, C.glabrata; settings: Nakaseomyces glabratus, 24 hr
[7] = pH 5.4, read-out: ACTIVITY (EC50) C.alb (B311)

| SMILES | pEC50 [1] | pEC50 [2] | pIC50 ([3]; Comparator Compound A table) | pEC50 [4, 7] | pEC50 ([4]; read-out: caEC50 24 hours) | pEC50 [5] | pEC50 [6] | pIC50 ([3]; Table V) | pEC50 ([4]; pH 5.4, read-out: caEC50 24 hours) |
| --- | --- | --- | --- | --- | --- | --- | --- | --- | --- |
| Cc1nccn1CCCCc1ccc(CC(=O)N[C@H](CO)C(=O)N[C@H](CCCCN)C(=O)N[C@H](CC2CCCCC2)C(=O)O)cc1 [Comparator Compound A, D-Alanine, 3-cyclohexyl-N-[N^2-[N-[[4-[4-(2-methyl-1H-imidazol-1-yl)butyl]phenyl]acetyl]-D-seryl]-D-lysyl]-, bis-trifluoroacetate] | < 3.60 | < 3.60 | < 3.00 | < 3.40 | < 3.40 | < 3.60 | < 3.60 |  |  |
| Cc1nccn1CCCCc1ccc(CC(=O)N[C@@H](CO)C(=O)N[C@@H](CCCCN)C(=O)N[C@@H](CC2CCCCC2)C(=O)O)cc1 [Example 2, L-Alanine, 3-cyclohexyl-N-[N^2-[N-[[4-[4-(2-Methyl-1H-imidazol-1-yl)butyl]phenyl]acetyl]-L-seryl]-L-lysyl]-, bis-trifluoroacetate] | 4.40 | < 3.60 |  | 4.46 |  | < 3.60 | < 3.60 | 3.09 | 4.46 |
